The source of these data is the NIST ThermoML archive (doi:10.1021/je8003673).

For this data set the following is noted: Crystal; DTA.

Numbers after ± are expanded uncertainties.

Consider `Nc1ccc(N)c2c1C(=O)c1ccccc1C2=O` [1,4-diaminoanthraquinone], for which the Normal melting temperature was determined as 243.12 ± 0.5 °C.
